# In patent publication US5852050A, “Preparation for treating wounds or hemorrhoids” (Kaken Pharmaceutical Co., Ltd., priority 1992, dated 1998):
# “Also recorded” adds a separate entry of the source. Read-outs that look alike come from different tables or passages of the source.
# What was measured:
# [1] = system: full-thickness skin layer wounds of diabetic mice; experiment: Effect of Beraprost on Wound Healing in full-thickness skin wound model of diabetic mice; type: in vivo, hereditary diabetic mice (C57BL/KsJ-dbm (db+/db+))
# Source text: Effect of Beraprost on Wound Healing in Full Sickness Wound Model of Diabetic Mice Whose Full-Thickness Skin Layer was Ablated
# Hair on the backs of hereditary diabetic mice (C57BL/KsJ-dbm (db+/db+), male, 11 to 12 weeks of age, 6 mice per group) was removed one day before a test. The back portions of the mice were cleaned with ethanol under ether anesthesia, and circular full-thickness skin layer wounds (2 cm^2) were formed in the middle portions of the backs with surgical curved scissors.
# Beraprost (sodium salt) as a test medicament was prepared in the form of a saline solution containing 20 % ethanol, and the saline solution was dropwise administered at a dosage of 5 μg/10 μl/cm^2 ×14 times (once per day for 14 days). As control, a solution (vehicle) containing no medicament was administered.
# For evaluating the effects of the test medicament, the wound surfaces were traced on plastic sheets at intervals of 2-3 days, and measured for wound areas with a planimeter. The ratios of the wound areas to the area immediately after the skin ablation were calculated, and the numbers of days required for the visual completion of epidermization (complete healing) from the skin-removed wounds were used as indices.
# Further, the degrees of the vascularization and granulation of wound surfaces were visually scored, and changes with the passage of days and side effects were observed.
# Further, an exudate was collected 9 days after the skin ablation, and a mixture of the exudate with a saline solution used for washing the wound was measured for a leucocyte number through a microscope.
# Further, the mice were sacrificed by ether anesthesia on 31th day, and skins of the wound portions were cut off and fixed with a 10% neutral buffer formalin solution. Then, paraffin sections, Hematoxyrin-Eosin-stained specimens and Masson trichrome-stained specimens were prepared according to conventional methods and observed through a microscope.
# [2] = system: Experimental Hemorrhoids Model in Rats; experiment: Prevention effects on experimental hemorrhoids model in rats (croton oil); type: in vivo, Male SLC: Wistar rats; design: Mucosa Bleeding, Necrosis, Peeling (total length from anus transition portion) / Mucosa Red thrombus (number of thrombus) / Mucosa Epithelium Activation, number of rats / Mucosa Congestion, number of rats / Submucosa Swelling, number of rats / Submucosa Inflammatory cell infiltration, number of rats: dose or concentration left out as unconfirmed; settings: for Submucosa Inflammatory cell infiltration, number of rats / Mucosa Congestion, number of rats / Mucosa Epithelium Activation, number of rats / Submucosa Swelling, number of rats: 8 rats
# Method: (§1) Prevention and Therapy Effects on Experimental Hemorrhoids Model in Rats
# (§2) A mixture of 1 volume of distilled water, 4 volumes of pyridine, 5 volumes of ethyl ether and 10 volumes of a 3% croton oil ethyl ether solution was used. The distilled water and a small amount of ethyl ether were added to, and blended with, the pyridine, and the 3% croton oil ethyl ether solution was added. Further, the remaining ethyl ether was added, and the mixture was vigorously stirred to prepare an inflammation-inducing agent containing croton oil. This solution was prepared just before the test, and stored with ice cooling during the test.
# (§3) Beraprost (sodium salt) was dissolved in distilled water to prepare a solution for oral administration and dissolved in a saline solution to prepare a solution for intrarectal administration.
# (§4) In the test of effects on the prevention of hemorrhoids, the dosage for oral administration was 0.1, 0.3 or 1.0 mg/kg, and the dosage for intrarectal administration was 0.01, 0.03, 0.1, 0.3 or 1.0 mg/kg. In the tests of effects on the therapy of hemorrhoids, the dosage for oral administration was 0.1 mg/kg, and the dosage for intrarectal administration was 0.03 mg/kg. Further, the dosage of the solution for oral administration was 10 ml/kg, and the dosage of the solution for intrarectal administration was 100 μl/kg.
# (§5) Seven to 8 rats were used as one group.
# In the test of prevention of hemorrhoids, beraprost was orally or intrarectally administered, and 30 minutes after the administration, 100 μl of the inflammation-inducing agent containing croton oil was infiltrated into the tampon of a swab and the tampon was inserted into the anus of each rat under no anesthesia for 10 seconds to induce inflammation.
# Three hours after the induction of inflammation, the rats were sacrificed by bleeding under anesthesia with ethyl ether, and a rectum-anus portion was taken from each rat such that it was exactly 20 mm long from a circular hairline on the anus epithelium, and measured for a weight.
# Further, in the intrarectally administered group, the isolated rectum-anus portion was fixed with a 10% neutral buffer formalin solution, and paraffin sections, Hematoxyrin-Eosin-stained specimens and Phosphotungstic acid hematoxyin-stained specimens were prepared according to conventional methods. Then, these were observed and their photographs were taken through an optical microscope The histological data obtained by the intrarectal administration of beraprost were examined.
# (§6) In addition, distilled water alone was administered to the control group for oral administration, and a saline solution (vehicle) alone was administered to the control group for intrarectal administration. Further, for comparison, a non-treated group which was neither treated with the inflammation-inducing agent containing croton oil and nor treated with a medicament and which was neither administered with distilled water nor administered with a saline solution was tested in the same manner.
# (§7) For the effect of beraprost on the weight of the rectum-anus portion, the difference from the control group was determined according to Student's t test, and for the histological data, the difference from the control group was determined according to Kruskal-Wallis H test. Further, the inhibition ratio was calculated on the basis of the rectum-anus portion average weight of each group by the following equation.
# (§8) Inhibition ratio (%)={1-[medicament-administered group-non-treated
# (§9) group)/(control group-non-treated group)]}×100
# [3] = system: Experimental Hemorrhoids Model in Rats; experiment: Therapy effects on experimental hemorrhoids model in rats (croton oil); type: in vivo, Male SLC: Wistar rats; settings: for Wet weight of anus-rectum: twice a day for 4 days, average ± standard error, * P < 0.05 vs control
# Method: as §1, §2, §3, §4, §5
# In the test of effects on the therapy of hemorrhoids, inflammation was induced with an inflammation-inducing agent containing croton oil in the same manner as in the test of effects on the prevention. Beraprost was administered twice a day in the morning and evening for 4 days, and the administration was started one day after the induction of inflammation. Rectum-anus portions isolated after 5 days in the same manner as in the test of effects on prevention were measured for a weight.
# as §6, §7, §8, §9
# [4] = Chemical stability; type: physicochemical; settings: beraprost or a salt thereof, powder
# [5] = Solubility in water; type: physicochemical; settings: beraprost or a salt thereof, powder
# [6] = background statement; cited from earlier work
# [7] = system: platelet aggregation; settings: background statement; cited from earlier work
# [8] = 9 days after the administration, as compared with vehicle
# [9] = 9 days after the administration, mean ± S.E., ** P < 0.01 vs vehicle
# [10] = score + (Low degree), 31 days after the skin ablation
# [11] = score + (Low degree), 31 days after the skin ablation, distribution * P < 0.05 (H test)
# [12] = score ++ (Intermediate degree), 31 days after the skin ablation
# [13] = score +++ (High degree), 31 days after the skin ablation
# [14] = score - (Not affected), 31 days after the skin ablation
# [15] = intrarectal 0.03 mg/kg, on average, P<0.01
# [16] = intrarectal, average ± standard error, ** P < 0.01
# [17] = score + (Low degree), intrarectal, distribution XX P < 0.01
# [18] = score ++ (Intermediate degree), intrarectal
compound,measurement,setting,value
"CC#CCC(C)[C@H](O)/C=C/[C@@H]1[C@H]2c3cccc(CCCC(=O)O)c3O[C@H]2C[C@H]1O (relative stereo) [Beraprost, (±)-(1R*, 2R*,3aS*,8bS*)-2,3,3a,8b-tetrahydro-2-hydroxy-1-[(E)-(3S*)-3-hydroxy-4-methyl-1-octen-6-ynyl]-1H-cyclopenta[b]benzofuran-5-butyric acid]",change ratio of wound area,"[1]; 3 days after administration, 5 μg/10 μl/cm^2 once per day for 14 days, mean ± S.E.",95.7 ± 2.50%
same,amount of exudate (in words),[1]; [8],clear increase
same,number of infiltrated leucocyte (in words),[1]; [8],clear increase
same,Amount of exudate,[1]; [9],36.6 ± 10.73 µL
same,Number of infiltrated leucocyte,[1]; [9],110.1 ± 31.66 × 10^4 cells/site
same,change ratio of wound area,"[1]; 10 days after administration, mean ± S.E., ** P < 0.01 vs vehicle",24.4%
same,change ratio of wound area,"[1]; 21 days after administration, mean ± S.E., * P < 0.05 vs vehicle",0.1%
same,histology of skin ablation portions (in words),[1]; 31 days after the skin ablation,"the whole areas were covered with regenerated skin and the exudate of the dermis disappeared; also recorded: the tissue showed transition to fibrosis, no formation of abnormal tissue or no scar of excess formation was shown, and normal wound healing was shown"
same,completion of healing first observed,[1]; day after administration,from the twenty-first day after administration
same,"wound surfaces (decrease, in words)","[1]; from the sixth day after administration, as compared with vehicle",remarkable decreases
same,Days until complete healing,"[1]; mean ± S.E., ** P < 0.01 vs vehicle",22 days
same,systemic side effects,"[1]; mouse, in vivo",no systemic side effects
same,weight difference from vehicle-administered group,"[1]; mouse, in vivo",no weight difference was observed
same,"Dermis, Subcutaneous tissue Exudate, number of cases",[1]; [10],1 cases in six mice
same,"Epidermis Hypertrophy, number of cases",[1]; [10],1 cases in six mice
same,"Epidermis Regeneration, number of cases",[1]; [10],0 cases in six mice
same,"Dermis, Subcutaneous tissue Fibrosis, number of cases",[1]; [11],0 cases in six mice
same,"Dermis, Subcutaneous tissue Granulation, number of cases",[1]; [11],2 cases in six mice
same,"Dermis, Subcutaneous tissue Fibrosis, number of cases",[1]; [12],2 cases in six mice
same,"Dermis, Subcutaneous tissue Granulation, number of cases",[1]; [12],0 cases in six mice
same,"Epidermis Regeneration, number of cases","[1]; score ++ (Intermediate degree), 31 days after the skin ablation, distribution * P < 0.05 (H test)",0 cases in six mice
same,"Dermis, Subcutaneous tissue Fibrosis, number of cases",[1]; [13],4 cases in six mice
same,"Epidermis Regeneration, number of cases",[1]; [13],6 cases in six mice
same,"Dermis, Subcutaneous tissue Fibrosis, number of cases",[1]; [14],0 cases in six mice
same,"Dermis, Subcutaneous tissue Granulation, number of cases",[1]; [14],4 cases in six mice
same,"Epidermis Regeneration, number of cases",[1]; [14],0 cases in six mice
same,"Dermis, Subcutaneous tissue Exudate, number of cases","[1]; score - (Not affected), 31 days after the skin ablation, distribution * P < 0.05 (H test)",5 cases in six mice
same,vascularization and granulation on the wound surfaces,"[1]; visual, as compared with vehicle-administered group",clear expeditious progress in the vascularization and granulation
same,dosage group with the largest effect,[2]; intrarectal,0.03 mg/kg
same,Inhibition ratio,[2]; intrarectal 0.01 mg/kg,22.9%
same,Wet weight of anus-rectum,"[2]; intrarectal 0.01 mg/kg, average ± standard error, ** P < 0.01 vs control",303.3 ± 6.25 mg
same,Inhibition ratio,[2]; intrarectal 0.03 mg/kg,35.8%
same,histology of rectum (in words),[2]; intrarectal 0.03 mg/kg,"the degrees of swelling and inflammatory cell infiltration lowered; also recorded: the mucosal epithelial cell nucleus was more densely stained than in a normal portion, and cells which appeared to be in an active state were distinctly observed; also recorded: the degree of congestion was lowered"
same,Wet weight of anus-rectum,"[2]; intrarectal 0.03 mg/kg, average ± standard error, ** P < 0.01 vs control",277.3 ± 12.88 mg
same,number of blood vessels having red thrombus,[2]; [15],6.8±2.35
same,"range of bleeding, necrosis and peeling of mucosal layer",[2]; [15],5.4±0.19 mm
same,Inhibition ratio,[2]; intrarectal 0.1 mg/kg,30.1%
same,Wet weight of anus-rectum,"[2]; intrarectal 0.1 mg/kg, average ± standard error, ** P < 0.01 vs control",288.7 ± 5.63 mg
same,Inhibition ratio,[2]; intrarectal 0.3 mg/kg,24.6%
same,Wet weight of anus-rectum,"[2]; intrarectal 0.3 mg/kg, average ± standard error, ** P < 0.01 vs control",299.7 ± 9.74 mg
same,Inhibition ratio,[2]; intrarectal 1.0 mg/kg,20.5%
same,Wet weight of anus-rectum,"[2]; intrarectal 1.0 mg/kg, average ± standard error, * P < 0.05 vs control",308.0 ± 14.51 mg
same,inhibition of rectum-anus weight increase (in words),"[2]; intrarectal 0.01 to 1.0 mg/kg, P<0.05 to 0.01",significant inhibition activity
same,"Mucosa Bleeding, Necrosis, Peeling (total length from anus transition portion)",[2]; [16],5.4 ± 0.19 mm
same,Mucosa Red thrombus (number of thrombus),[2]; [16],6.8 ± 2.35
same,Inhibition ratio,[2]; oral 0.1 mg/kg,24.5%
same,Wet weight of anus-rectum,"[2]; oral 0.1 mg/kg, average ± standard error, ** P < 0.01 vs control",307.1 ± 5.87 mg
same,Inhibition ratio,[2]; oral 0.3 mg/kg,32.3%
same,Wet weight of anus-rectum,"[2]; oral 0.3 mg/kg, average ± standard error, ** P < 0.01 vs control",292.5 ± 11.28 mg
same,Inhibition ratio,[2]; oral 1.0 mg/kg,39.3%
same,Wet weight of anus-rectum,"[2]; oral 1.0 mg/kg, average ± standard error, ** P < 0.01 vs control",279.3 ± 8.32 mg
same,swelling inhibition activity (in words),"[2]; oral 0.1 to 1.0 mg/kg, depending upon the dosage",clear swelling inhibition activity depending upon the dosage
same,"swelling in rectum-anus portion and histopathological data (overall, in words)",[2]; orally and intrarectally administered,clearly inhibits the swelling; also recorded: remarkable effects in histopathological data
same,"Submucosa Inflammatory cell infiltration, number of rats","[2]; score + (Low degree), intrarectal, distribution X P < 0.05",5
same,"Mucosa Congestion, number of rats",[2]; [17],8
same,"Mucosa Epithelium Activation, number of rats",[2]; [17],2
same,"Mucosa Congestion, number of rats",[2]; [18],0
same,"Mucosa Epithelium Activation, number of rats",[2]; [18],6
same,"Submucosa Inflammatory cell infiltration, number of rats",[2]; [18],3
same,"Submucosa Swelling, number of rats","[2]; score ++ (Intermediate degree), intrarectal, distribution XX P < 0.01",8
same,"Submucosa Swelling, number of rats","[2]; score +++ (High degree), intrarectal",0
same,"Mucosa Epithelium Activation, number of rats","[2]; score - (No change), intrarectal",0
same,Inhibition ratio,[3]; i.r. 0.03 mg/kg,31.4%
same,Wet weight of anus-rectum,[3]; i.r. 0.03 mg/kg,368.5 ± 27.35 mg
same,activity for inhibiting the swelling (in words),"[3]; oral 0.1 mg/kg and intrarectal 0.03 mg/kg, P<0.05",significant (P<0.05) activity for inhibiting the swelling
same,Inhibition ratio,[3]; p.o. 0.1 mg/kg,27.1%
same,Wet weight of anus-rectum,[3]; p.o. 0.1 mg/kg,380.7 ± 23.74 mg
same,chemical stability,[4],chemically stable
same,solubility in water,[5],soluble in water
same,chemical stability,[6],chemically stable
"CCCCC[C@H](O)/C=C/[C@H]1[C@H](O)CC(=O)[C@@H]1CCCCCCC(=O)O [PGE1, prostaglandin E1]",inhibition activity of platelet aggregation,[7],high inhibition activity of platelet aggregation
"CCCCC[C@H](O)/C=C/[C@@H]1[C@H]2C/C(=C/CCCC(=O)O)O[C@H]2C[C@H]1O [PGI2, Prostaglandin I2]",chemical stability,[6],chemically unstable
same,inhibition activity of platelet aggregation,[7],high inhibition activity of platelet aggregation
